Consider two molecules from article PMC7385359.

A short description of this data set: not told.

Values joined by “and” are separate entries in the source; they are usually repeats but may differ in a detail not shown here. Identical values can stand only once.

Take `COC(=O)C1CC2(CN1C(C)=O)CC2(F)F` (centres unmarked): the “log partition 1-octanol / water” value was 0.18 log10 and 0.03 log10.

With `COC(=O)C1CC2(CC2)CN1C(C)=O` (centres unmarked), the “log partition 1-octanol / water” value is listed as 0.19 log10.
